From patent US20260007681A1, “INDOLE DERIVATIVES AS ESTROGEN RECEPTOR DEGRADERS” (REGENTS OF THE UNIVERSITY OF MICHIGAN, priority 2022, published 2026)

molecular target: ER (Homo sapiens (Human), UniProt P03372); test: Western blot analysis (Compounds B1-B278); type: cell-based; conditions: ER degradation by traditional Western blot; DC50 classes
Summary of the method: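 Compound-treated cells were lysed in RIPA buffer (Tris.HCl pH 7.6, 1% NP-40, deoxycholate, 0.1% SDS) with protease inhibitors; equal protein was resolved on 10% SDS-PAGE, transferred to PVDF and immunoblotted. Band intensities were quantified and normalized to GAPDH.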

ER, sequence (P03372 whole entry): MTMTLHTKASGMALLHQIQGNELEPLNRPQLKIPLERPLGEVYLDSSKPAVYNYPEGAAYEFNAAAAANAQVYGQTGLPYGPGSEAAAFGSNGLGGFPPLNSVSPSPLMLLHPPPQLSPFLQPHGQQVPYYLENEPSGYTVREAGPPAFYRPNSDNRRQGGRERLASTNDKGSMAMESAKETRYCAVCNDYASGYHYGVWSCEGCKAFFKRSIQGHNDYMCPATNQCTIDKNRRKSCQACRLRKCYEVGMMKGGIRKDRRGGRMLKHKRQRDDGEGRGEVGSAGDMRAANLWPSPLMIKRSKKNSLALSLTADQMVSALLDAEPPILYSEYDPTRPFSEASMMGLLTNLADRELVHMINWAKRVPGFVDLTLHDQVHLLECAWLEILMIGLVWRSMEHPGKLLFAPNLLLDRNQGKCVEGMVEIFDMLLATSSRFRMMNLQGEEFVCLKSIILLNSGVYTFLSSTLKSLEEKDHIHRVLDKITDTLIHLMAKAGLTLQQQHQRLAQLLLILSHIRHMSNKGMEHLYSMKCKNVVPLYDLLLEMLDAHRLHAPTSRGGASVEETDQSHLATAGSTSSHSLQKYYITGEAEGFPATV

| Structure (SMILES) | Traditional Western Degradation Potency |
| --- | --- |
| C[C@@H]1Cc2c([nH]c3ccccc23)[C@@H](c2c(F)cc(C3CCC(C(=O)N4CC(N5Cc6cc7c(cc6C5)C(=O)N(C5CCC(=O)NC5=O)C7=O)C4)CC3)cc2F)N1CC(F)F (stereo partly drawn) [Compound B80, 6-(1-(4-(4-((1R,3R)-2-(2,2-difluoroethyl)-3-methyl-2,3,4,9-tetrahydro-1H-pyrido[3,4-b]indol-1-yl)-3,5-difluorophenyl)cyclohexane-1-carbonyl)azetidin-3-yl)-2-(2,6-dioxopiperidin-3-yl)-6,7-dihydropyrrolo[3,4-f]isoindole-1,3(2H,5H)-dione] | C (“C”: >100 nM) |
| C[C@@H]1Cc2c([nH]c3ccccc23)[C@@H](c2c(F)cc(C3CCC(C(=O)N4CC(CN5Cc6cc7c(cc6C5)C(=O)N(C5CCC(=O)NC5=O)C7=O)C4)CC3)cc2F)N1CC(F)F (stereo partly drawn) [Compound B81, 6-((1-(4-(4-((1R,3R)-2-(2,2-difluoroethyl)-3-methyl-2,3,4,9-tetrahydro-1H-pyrido[3,4-b]indol-1-yl)-3,5-difluorophenyl)cyclohexane-1-carbonyl)azetidin-3-yl)methyl)-2-(2,6-dioxopiperidin-3-yl)-6,7-dihydropyrrolo[3,4-f]isoindole-1,3(2H,5H)-dione] | A (“A”: <10 nM) |
| C[C@@H]1Cc2c([nH]c3ccccc23)[C@@H](c2c(F)cc(C3CCC(CN4CCC(N5Cc6cc7c(cc6C5)C(=O)N(C5CCC(=O)NC5=O)C7=O)CC4)CC3)cc2F)N1CC(F)F (stereo partly drawn) [Compound B82, 6-(1-((4-(4-((1R,3R)-2-(2,2-difluoroethyl)-3-methyl-2,3,4,9-tetrahydro-1H-pyrido[3,4-b]indol-1-yl)-3,5-difluorophenyl)cyclohexyl)methyl)piperidin-4-yl)-2-(2,6-dioxopiperidin-3-yl)-6,7-dihydropyrrolo[3,4-f]isoindole-1,3(2H,5H)-dione] | C (“C”: >100 nM) |
| C[C@@H]1Cc2c([nH]c3ccccc23)[C@@H](c2c(F)cc(C3CCC(CN4CC(CN5Cc6cc7c(cc6C5)C(=O)N(C5CCC(=O)NC5=O)C7=O)C4)CC3)cc2F)N1CC(F)F (stereo partly drawn) [Compound B83, 6-((1-((4-(4-((1R,3R)-2-(2,2-difluoroethyl)-3-methyl-2,3,4,9-tetrahydro-1H-pyrido[3,4-b]indol-1-yl)-3,5-difluorophenyl)cyclohexyl)methyl)azetidin-3-yl)methyl)-2-(2,6-dioxopiperidin-3-yl)-6,7-dihydropyrrolo[3,4-f]isoindole-1,3(2H,5H)-dione] | C (“C”: >100 nM) |
| C[C@@H]1Cc2c([nH]c3ccccc23)[C@@H](c2c(F)cc(C3CCC(C(=O)N4CCC(N5Cc6cc7c(cc6C5)C(=O)N(C5CCC(=O)NC5=O)C7)CC4)CC3)cc2F)N1CC(F)F (stereo partly drawn) [Compound B84, 3-(6-(1-(4-(4-((1R,3R)-2-(2,2-difluoroethyl)-3-methyl-2,3,4,9-tetrahydro-1H-pyrido[3,4-b]indol-1-yl)-3,5-difluorophenyl)cyclohexane-1-carbonyl)piperidin-4-yl)-1-oxo-3,5,6,7-tetrahydropyrrolo[3,4-f]isoindol-2(1H)-yl)piperidine-2,6-dione] | A (“A”: <10 nM) |
| C[C@@H]1Cc2c([nH]c3ccccc23)[C@@H](c2c(F)cc(C3CCC(CN4CCC(N5Cc6cc7c(cc6C5)C(=O)N(C5CCC(=O)NC5=O)C7)CC4)CC3)cc2F)N1CC(F)F (stereo partly drawn) [Compound B85, 3-(6-(1-((4-(4-((1R,3R)-2-(2,2-difluoroethyl)-3-methyl-2,3,4,9-tetrahydro-1H-pyrido[3,4-b]indol-1-yl)-3,5-difluorophenyl)cyclohexyl)methyl)piperidin-4-yl)-1-oxo-3,5,6,7-tetrahydropyrrolo[3,4-f]isoindol-2(1H)-yl)piperidine-2,6-dione] | B (“B”: 10-100 nM) |
| C[C@@H]1Cc2c([nH]c3ccccc23)[C@@H](c2c(F)cc(-c3cnc(C(=O)N4CCC(N5Cc6cc7c(cc6C5)C(=O)N(C5CCC(=O)NC5=O)C7=O)CC4)nc3)cc2F)N1CC(F)F (stereo partly drawn) [Compound B86, 6-(1-(5-(4-((1R,3R)-2-(2,2-difluoroethyl)-3-methyl-2,3,4,9-tetrahydro-1H-pyrido[3,4-b]indol-1-yl)-3,5-difluorophenyl)pyrimidine-2-carbonyl)piperidin-4-yl)-2-(2,6-dioxopiperidin-3-yl)-6,7-dihydropyrrolo[3,4-f]isoindole-1,3(2H,5H)-dione] | B (“B”: 10-100 nM) |
| C[C@@H]1Cc2c([nH]c3ccccc23)[C@@H](c2c(F)cc(-c3ccc(C(=O)N4CCC(N5Cc6cc7c(cc6C5)C(=O)N(C5CCC(=O)NC5=O)C7=O)CC4)nc3)cc2F)N1CC(F)F (stereo partly drawn) [Compound B87, 6-(1-(5-(4-((1R,3R)-2-(2,2-difluoroethyl)-3-methyl-2,3,4,9-tetrahydro-1H-pyrido[3,4-b]indol-1-yl)-3,5-difluorophenyl)picolinoyl)piperidin-4-yl)-2-(2,6-dioxopiperidin-3-yl)-6,7-dihydropyrrolo[3,4-f]isoindole-1,3(2H,5H)-dione] | B (“B”: 10-100 nM) |
| C[C@@H]1Cc2c([nH]c3ccccc23)[C@@H](c2c(F)cc(-c3ccc(CN4CCC(N5Cc6cc7c(cc6C5)C(=O)N(C5CCC(=O)NC5=O)C7=O)CC4)nc3)cc2F)N1CC(F)F (stereo partly drawn) [Compound B88, 6-(1-((5-(4-((1R,3R)-2-(2,2-difluoroethyl)-3-methyl-2,3,4,9-tetrahydro-1H-pyrido[3,4-b]indol-1-yl)-3,5-difluorophenyl)pyridin-2-yl)methyl)piperidin-4-yl)-2-(2,6-dioxopiperidin-3-yl)-6,7-dihydropyrrolo[3,4-f]isoindole-1,3(2H,5H)-dione] | C (“C”: >100 nM) |
| C[C@@H]1Cc2c([nH]c3ccccc23)[C@@H](c2c(F)cc(-c3ccc(C(=O)N4CCC(N5Cc6cc7c(cc6C5)C(=O)N(C5CCC(=O)NC5=O)C7=O)CC4)cn3)cc2F)N1CC(F)F (stereo partly drawn) [Compound B89, 6-(1-(6-(4-((1R,3R)-2-(2,2-difluoroethyl)-3-methyl-2,3,4,9-tetrahydro-1H-pyrido[3,4-b]indol-1-yl)-3,5-difluorophenyl)nicotinoyl)piperidin-4-yl)-2-(2,6-dioxopiperidin-3-yl)-6,7-dihydropyrrolo[3,4-f]isoindole-1,3(2H,5H)-dione] | A (“A”: <10 nM) |
| C[C@@H]1Cc2c([nH]c3ccccc23)[C@@H](c2c(F)cc(-c3ccc(C(=O)N4CCC(N5Cc6cc7c(cc6C5)C(=O)N(C5CCC(=O)NC5=O)C7=O)CC4)nn3)cc2F)N1CC(F)F (stereo partly drawn) [Compound B91, 6-(1-(6-(4-((1R,3R)-2-(2,2-difluoroethyl)-3-methyl-2,3,4,9-tetrahydro-1H-pyrido[3,4-b]indol-1-yl)-3,5-difluorophenyl)pyridazine-3-carbonyl)piperidin-4-yl)-2-(2,6-dioxopiperidin-3-yl)-6,7-dihydropyrrolo[3,4-f]isoindole-1,3(2H,5H)-dione] | B (“B”: 10-100 nM) |
| C[C@@H]1Cc2c([nH]c3ccccc23)[C@@H](c2c(F)cc(-c3ncc(C(=O)N4CCC(N5Cc6cc7c(cc6C5)C(=O)N(C5CCC(=O)NC5=O)C7=O)CC4)cn3)cc2F)N1CC(F)F (stereo partly drawn) [Compound B92, 6-(1-(2-(4-((1R,3R)-2-(2,2-difluoroethyl)-3-methyl-2,3,4,9-tetrahydro-1H-pyrido[3,4-b]indol-1-yl)-3,5-difluorophenyl)pyrimidine-5-carbonyl)piperidin-4-yl)-2-(2,6-dioxopiperidin-3-yl)-6,7-dihydropyrrolo[3,4-f]isoindole-1,3(2H,5H)-dione] | A (“A”: <10 nM) |
| C[C@@H]1Cc2c([nH]c3ccccc23)[C@@H](c2c(F)cc(-c3ccc(C(=O)N4CCC(N5Cc6cc7c(cc6C5)C(=O)N(C5CCC(=O)NC5=O)C7=O)CC4)cc3)cc2F)N1CC(F)F (stereo partly drawn) [Compound B93, 6-(1-(4′-((1R,3R)-2-(2,2-difluoroethyl)-3-methyl-2,3,4,9-tetrahydro-1H-pyrido[3,4-b]indol-1-yl)-3′,5′-difluoro-[1,1′-biphenyl]-4-carbonyl)piperidin-4-yl)-2-(2,6-dioxopiperidin-3-yl)-6,7-dihydropyrrolo[3,4-f]isoindole-1,3(2H,5H)-dione] | A (“A”: <10 nM) |
| C[C@@H]1Cc2c([nH]c3ccccc23)[C@@H](c2c(F)cc(C3CCN(C(=O)C4CCC(N5Cc6cc7c(cc6C5)C(=O)N(C5CCC(=O)NC5=O)C7=O)CC4)CC3)cc2F)N1CC(F)F (stereo partly drawn) [Compound B94, 6-(4-(4-(4-((1R,3R)-2-(2,2-difluoroethyl)-3-methyl-2,3,4,9-tetrahydro-1H-pyrido[3,4-b]indol-1-yl)-3,5-difluorophenyl)piperidine-1-carbonyl)cyclohexyl)-2-(2,6-dioxopiperidin-3-yl)-6,7-dihydropyrrolo[3,4-f]isoindole-1,3(2H,5H)-dione] | B (“B”: 10-100 nM) |
| C[C@@H]1Cc2c([nH]c3ccccc23)[C@@H](c2c(F)cc(C3CCN(C[C@H]4CC[C@H](N5Cc6cc7c(cc6C5)C(=O)N(C5CCC(=O)NC5=O)C7=O)CC4)CC3)cc2F)N1CC(F)F (stereo partly drawn) [Compound B95, 6-((1R,4r)-4-((4-(4-((1R,3R)-2-(2,2-difluoroethyl)-3-methyl-2,3,4,9-tetrahydro-1H-pyrido[3,4-b]indol-1-yl)-3,5-difluorophenyl)piperidin-1-yl)methyl)cyclohexyl)-2-(2,6-dioxopiperidin-3-yl)-6,7-dihydropyrrolo[3,4-f]isoindole-1,3(2H,5H)-dione] | C (“C”: >100 nM) |
| C[C@@H]1Cc2c([nH]c3ccccc23)[C@@H](c2c(F)cc(C3CCN(C[C@H]4CC[C@H](N5Cc6cc7c(cc6C5)C(=O)N(C5CCC(=O)NC5=O)C7=O)CC4)CC3)cc2F)N1CC(F)F (stereo partly drawn) [Compound B96, 6-((1R,4r)-4-((4-(4-((1R,3R)-2-(2,2-difluoroethyl)-3-methyl-2,3,4,9-tetrahydro-1H-pyrido[3,4-b]indol-1-yl)-3,5-difluorophenyl)piperidin-1-yl)methyl)cyclohexyl)-2-(2,6-dioxopiperidin-3-yl)-6,7-dihydropyrrolo[3,4-f]isoindole-1,3(2H,5H)-dione] | C (“C”: >100 nM) |
